In PubChem BioAssay AID1963964 (Molecular Pharmacology Branch, DTP, NCI, 2024):

Test system: 997726-040-R-J2-PDC tumor spheroids, viability
Assay: Anticancer human tumor 997726-040-R-J2-PDC patient-derived squamous cell lung carcinoma cell line growth inhibition [PI3K]
Conditions: spheroids with HUVEC and MSC; for IC50: curve of first compound; for viability, T/C: stronger effect = lower value; active means viability on the fitted dose curve at most 10% of control; inactive means the rest
Procedure, shortened: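 Multi-cell spheroids combine tumor cells with HUVEC and human MSCs, treated with targeted agents alone or with inavolisib, alpelisib, duvelisib or copanlisib. Concentrations fall in half-log steps from at or near clinical Cmax, or from 10 microM where Cmax is unknown; viability read-out.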
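Further: spheroids exposed to compounds for seven days before readout.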

CC(C)NCC(C(=O)N1CCN(c2ncnc3c2C(C)CC3O)CC1)c1ccc(Cl)cc1 (configuration not stated) + Cc1nc(NC(=O)N2CCCC2C(N)=O)sc1-c1ccnc(C(C)(C)C(F)(F)F)c1
< 31.6 nM: IC50 (second compound 1 µM) | IC50 (second compound 3.16 µM) | IC50 (second compound 10 µM)
120 nM: IC50 (second compound 0.316 µM)
active: viability, T/C (second compound 0.0316 µM, first compound 10 µM) 8.8% | viability, T/C (second compound 0.316 µM, first compound 10 µM) 9.52% | viability, T/C (second compound 1 µM, first compound 10 µM) 6.76% | viability, T/C (second compound 3.16 µM, first compound 3.16 µM) 7.98% | viability, T/C (second compound 3.16 µM, first compound 10 µM) 4.28% | viability, T/C (second compound 10 µM, first compound 0.316 µM) 10.7% | viability, T/C (second compound 10 µM, first compound 1 µM) 5.86% | viability, T/C (second compound 10 µM, first compound 3.16 µM) 3.95% | viability, T/C (second compound 10 µM, first compound 10 µM) 3.36%
inactive: viability, T/C (second compound 0.0316 µM, first compound 0.0316 µM) 73.4% | viability, T/C (second compound 0.0316 µM, first compound 0.1 µM) 65.9% | viability, T/C (second compound 0.0316 µM, first compound 0.316 µM) 47.7% | viability, T/C (second compound 0.0316 µM, first compound 1 µM) 23.8% | viability, T/C (second compound 0.0316 µM, first compound 3.16 µM) 12.7% | viability, T/C (second compound 0.1 µM, first compound 0.0316 µM) 71.6% | viability, T/C (second compound 0.1 µM, first compound 0.1 µM) 66.8% | viability, T/C (second compound 0.1 µM, first compound 0.316 µM) 46.6% | viability, T/C (second compound 0.1 µM, first compound 1 µM) 25.9% | viability, T/C (second compound 0.1 µM, first compound 3.16 µM) 15.2% | viability, T/C (second compound 0.1 µM, first compound 10 µM) 10.6% | viability, T/C (second compound 0.316 µM, first compound 0.0316 µM) 55.9% | viability, T/C (second compound 0.316 µM, first compound 0.1 µM) 52.5% | viability, T/C (second compound 0.316 µM, first compound 0.316 µM) 39% | viability, T/C (second compound 0.316 µM, first compound 1 µM) 22.4% | viability, T/C (second compound 0.316 µM, first compound 3.16 µM) 11.2% | viability, T/C (second compound 1 µM, first compound 0.0316 µM) 49.5% | viability, T/C (second compound 1 µM, first compound 0.1 µM) 37.2% | viability, T/C (second compound 1 µM, first compound 0.316 µM) 34% | viability, T/C (second compound 1 µM, first compound 1 µM) 21% | viability, T/C (second compound 1 µM, first compound 3.16 µM) 10.5% | viability, T/C (second compound 3.16 µM, first compound 0.0316 µM) 33.2% | viability, T/C (second compound 3.16 µM, first compound 0.1 µM) 27.5% | viability, T/C (second compound 3.16 µM, first compound 0.316 µM) 25% | viability, T/C (second compound 3.16 µM, first compound 1 µM) 16.5% | viability, T/C (second compound 10 µM, first compound 0.0316 µM) 15.8% | viability, T/C (second compound 10 µM, first compound 0.1 µM) 10.9%
269 nM: IC50 (second compound 0.0316 µM) | IC50 (second compound 0.1 µM)
